Values joined by “and” are separate entries in the source; they are usually repeats but may differ in a detail not shown here. Identical values can stand only once. Like-named read-outs stand apart in the source and are kept apart here. Values belong to the compound of their own block, whether it stands above or below them.
Assays:
[1] = tested on: H460 cells; experiment: CCK-8 antiproliferation assay, H460; details: for IC50: NCI-H460, 48 h, read-out: IC50 (μM) H460, CCK-8, 48 h, average ± SD of three independent experiments
[2] = tested on: A549 cells; experiment: CCK-8 antiproliferation assay, A549; details: for Inhibitory efficacy: A549 cells; for IC50: A549, 48 h, read-out: IC50 (μM) A549, CCK-8, 48 h, average ± SD of three independent experiments
[3] = target: wild-type EGFR (Homo sapiens, UniProt P00533); experiment: EGFR kinase assay (ELISA); details: for IC50: IC50 (μM) EGFR, ELISA, 3 μmol/L ATP; for A450: raw ELISA absorbance
Chain of wild-type EGFR (P00533 25-1210): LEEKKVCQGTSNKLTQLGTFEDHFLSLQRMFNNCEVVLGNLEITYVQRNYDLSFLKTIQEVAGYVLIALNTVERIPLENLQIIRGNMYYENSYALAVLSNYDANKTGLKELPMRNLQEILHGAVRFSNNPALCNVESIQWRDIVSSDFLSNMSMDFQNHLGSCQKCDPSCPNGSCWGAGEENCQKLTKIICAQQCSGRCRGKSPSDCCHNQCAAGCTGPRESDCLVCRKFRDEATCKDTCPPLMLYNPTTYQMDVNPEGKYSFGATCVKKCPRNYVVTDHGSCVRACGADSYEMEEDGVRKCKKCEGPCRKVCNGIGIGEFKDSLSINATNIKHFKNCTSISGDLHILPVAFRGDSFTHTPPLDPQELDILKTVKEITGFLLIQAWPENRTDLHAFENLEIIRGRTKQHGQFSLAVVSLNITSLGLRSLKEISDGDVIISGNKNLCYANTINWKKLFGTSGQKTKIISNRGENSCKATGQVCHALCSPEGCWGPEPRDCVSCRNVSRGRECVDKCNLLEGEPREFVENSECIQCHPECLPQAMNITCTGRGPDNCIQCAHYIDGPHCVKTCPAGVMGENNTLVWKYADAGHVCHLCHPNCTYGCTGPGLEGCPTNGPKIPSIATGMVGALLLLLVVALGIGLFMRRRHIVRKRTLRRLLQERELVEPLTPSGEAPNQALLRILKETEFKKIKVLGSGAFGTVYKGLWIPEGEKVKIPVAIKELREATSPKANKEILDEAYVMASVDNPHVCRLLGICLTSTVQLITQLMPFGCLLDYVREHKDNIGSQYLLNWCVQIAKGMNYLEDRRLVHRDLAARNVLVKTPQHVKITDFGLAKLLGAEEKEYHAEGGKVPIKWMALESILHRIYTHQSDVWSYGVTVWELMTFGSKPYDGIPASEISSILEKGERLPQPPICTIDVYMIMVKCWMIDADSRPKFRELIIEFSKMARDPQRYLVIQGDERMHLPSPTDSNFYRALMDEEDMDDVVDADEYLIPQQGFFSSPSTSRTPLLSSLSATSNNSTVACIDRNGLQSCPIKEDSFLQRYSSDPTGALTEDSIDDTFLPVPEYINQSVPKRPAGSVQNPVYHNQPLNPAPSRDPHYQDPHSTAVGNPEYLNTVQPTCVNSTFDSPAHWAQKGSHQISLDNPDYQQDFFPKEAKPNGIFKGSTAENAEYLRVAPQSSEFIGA

[4] = tested on: PC-9 cells; experiment: CCK-8 antiproliferation assay, PC-9; details: for IC50: PC-9, 48 h, read-out: IC50 (μM) PC-9; for inhibition at 4 µM: PC-9, read-out: Inhibitory efficacy, PC-9, 4uM, single repeats (Repeat 1-3), given as fraction; for inhibition at 8 µM: PC-9, read-out: Inhibitory efficacy, PC-9, 8uM, single repeats (Repeat 1-3), given as fraction; for inhibition at 16 µM: PC-9, read-out: Inhibitory efficacy, PC-9, 16uM, single repeats (Repeat 1-3), given as fraction; for Inhibitory efficacy: single repeats (Repeat 1-3), given as fraction
[5] = tested on: H1975 cells; experiment: CCK-8 antiproliferation assay, H1975; details: for Inhibitory efficacy: H1975 cells; for IC50: NCI-H1975, 48 h, read-out: IC50 (μM) H1975, CCK-8, 48 h, average ± SD of three independent experiments
Description: The compounds were dissolved in DMSO to make a 20 μM stock solution and diluted to the concentration of working solutions with complete growth medium before administration.
Cells were seeded in 96-well plates: 3,000–5,000 cells/well in 100 ul. One day after seeding, the test compounds at concentration between 1.0 and 16.0 μ M or 0.1% DMSO (as control) were added to cells in triplicate. 48 h later, CCK-8 was added and incubated the plate for 1–4 h in the incubator. The absorbance at 450 nm were measured using a microplate reader (Bio-Tek).

[6] = 4uM, given as fraction, Repeat 1-3
[7] = 8uM, given as fraction, Repeat 1-3
[8] = 16uM, given as fraction, Repeat 1-3
[9] = Homo sapiens, A549, read-out: Inhibitory efficacy, A549 cells, 8uM, given as fraction, Repeat 1-3
[10] = Homo sapiens, A549, read-out: Inhibitory efficacy, A549 cells, 16uM, given as fraction, Repeat 1-3
[11] = Homo sapiens, NCI-H1975, read-out: Inhibitory efficacy, H1975 cells, 8uM, given as fraction, Repeat 1-3
[12] = Homo sapiens, NCI-H1975, read-out: Inhibitory efficacy, H1975 cells, 16uM, given as fraction, Repeat 1-3

- IC50 ([1]; Homo sapiens): 9.08 ± 2.81 µM
- IC50 ([2]; Homo sapiens): 11.8 ± 1.7 µM
- IC50 [3]: 0.32 µM
- inhibition at 100 fM ([3]; concentration 0.0001 nM (reference for normalisation), one value per replicate column): 0%
- Inhibition ([3]; concentration 0.03 nM, one value per replicate column, 3e-05 µM): 2.548 and 6.494
- inhibition at 0.0003 µM ([3]; concentration 0.3 nM, one value per replicate column): 10.8%
- Inhibition ([3]; concentration 0.3 nM, one value per replicate column, 0.0003 µM): 7.792
- inhibition at 0.003 µM ([3]; concentration 3 nM, one value per replicate column): 31.8%
- Inhibition ([3]; concentration 3 nM, one value per replicate column, 0.003 µM): 24.6753
- inhibition at 0.03 µM ([3]; concentration 30 nM, one value per replicate column): 31.8%
- Inhibition ([3]; concentration 30 nM, one value per replicate column, 0.03 µM): 27.2727
- inhibition at 0.3 µM ([3]; concentration 300 nM, one value per replicate column): 49%
- Inhibition ([3]; concentration 300 nM, one value per replicate column, 0.3 µM): 35.7143
- inhibition at 3 µM ([3]; concentration 3000 nM, one value per replicate column): 63.7%
- Inhibition ([3]; concentration 3000 nM, one value per replicate column, 3 µM): 56.4935
- inhibition at 30 µM ([3]; concentration 30000 nM, one value per replicate column): 97.5%
- Inhibition ([3]; concentration 30000 nM, one value per replicate column, 30 µM): 98.0519
- A450 ([3]; concentration 0.0001 nM): 0.404 and 0.396
- A450 ([3]; concentration 0.03 nM): 0.4 and 0.386
- A450 ([3]; concentration 0.3 nM): 0.387 and 0.384
- A450 ([3]; concentration 3 nM): 0.354 and 0.358
- A450 ([3]; concentration 30 nM): 0.354
- A450 ([3]; concentration 300 nM): 0.327 and 0.341
- A450 ([3]; concentration 3000 nM): 0.304 and 0.309
- A450 ([3]; concentration 30000 nM): 0.251 and 0.245
- IC50 ([4]; Homo sapiens): 11.6 ± 3.64 µM
- melting point: 93 to 96 °C
- IC50 ([5]; Homo sapiens): 15.7 ± 2.76 µM
Compound: COCCOc1cc2ncnc(Nc3cccc(-c4cn(Cc5ccccc5I)nn4)c3)c2cc1OCCOC [e2, [6,7-Bis-(2-methoxy-ethoxy)-quinazolin-4-yl]-{3-[1-(2-iodo-benzyl)-1H-[1,2,3]triazol-4-yl]-phenyl}-amine]
- Inhibitory efficacy ([1]; H460 cells, 1uM, given as fraction, Repeat 1-3): 0.124 and 0.2238
- Inhibitory efficacy ([1]; H460 cells, 2uM, given as fraction, Repeat 1-3): 0.2881 and 0.2336
- Inhibitory efficacy ([1]; H460 cells, 4uM, given as fraction, Repeat 1-3): 0.2321 and 0.3138
- Inhibitory efficacy ([1]; H460 cells, 8uM, given as fraction, Repeat 1-3): 0.5164 and 0.5844
- inhibition at 1 µM ([1]; Homo sapiens, NCI-H460, read-out: Inhibitory efficacy, H460 cells, 1uM, given as fraction, Repeat 1-3): 11.6%
- inhibition at 2 µM ([1]; Homo sapiens, NCI-H460, read-out: Inhibitory efficacy, H460 cells, 2uM, given as fraction, Repeat 1-3): 33.4%
- inhibition at 4 µM ([1]; Homo sapiens, NCI-H460, read-out: Inhibitory efficacy, H460 cells, 4uM, given as fraction, Repeat 1-3): 16%
- inhibition at 8 µM ([1]; Homo sapiens, NCI-H460, read-out: Inhibitory efficacy, H460 cells, 8uM, given as fraction, Repeat 1-3): 46.6%
- Inhibitory efficacy [2, 6]: 0.4029 and 0.476
- Inhibitory efficacy [2, 7]: 0.4092 and 0.465
- Inhibitory efficacy [2, 8]: 0.5413 and 0.5397
- inhibition at 4 µM ([2]; Homo sapiens, A549, read-out: Inhibitory efficacy, A549 cells, 4uM, given as fraction, Repeat 1-3): 29.4%
- inhibition at 8 µM [2, 9]: 41.8%
- inhibition at 16 µM [2, 10]: 50.4%
- inhibition at 1 µM ([4]; Homo sapiens, PC-9, read-out: Inhibitory efficacy, PC-9, 1uM, single repeats (Repeat 1-3), given as fraction): 7.63%
- inhibition at 2 µM ([4]; Homo sapiens, PC-9, read-out: Inhibitory efficacy, PC-9, 2uM, single repeats (Repeat 1-3), given as fraction): 20.6%
- inhibition at 4 µM ([4]; Homo sapiens): 28.9%
- inhibition at 8 µM ([4]; Homo sapiens): 36.1%
- inhibition at 16 µM ([4]; Homo sapiens): 49.1%
- Inhibitory efficacy ([4]; PC-9, 1uM, 1 µM): 0.07634 and 0.0877
- Inhibitory efficacy ([4]; PC-9, 2uM, 2 µM): 0.1331 and 0.1085
- Inhibitory efficacy ([4]; PC-9, 4uM, 4 µM): 0.3461 and 0.3328
- Inhibitory efficacy ([4]; PC-9, 8uM, 8 µM): 0.365 and 0.4549
- Inhibitory efficacy ([4]; PC-9, 16uM, 16 µM): 0.6025 and 0.6224
- Inhibitory efficacy [5, 7]: 0.3905 and 0.2825
- Inhibitory efficacy [5, 8]: 0.5504 and 0.4649
- inhibition at 8 µM [5, 11]: 37.6%
- inhibition at 16 µM [5, 12]: 48.4%

- IC50 ([1]; Homo sapiens): 4.18 ± 0.49 µM
- IC50 ([2]; Homo sapiens): 23 ± 0.75 µM
- inhibition at 0.0003 µM ([3]; 0.3 nM, duplicate wells, calculated from A450): 14.4%
- Inhibition ([3]; 0.3 nM, duplicate wells, calculated from A450, 0.0003 µM): 7.895
- inhibition at 0.003 µM ([3]; 3 nM, duplicate wells, calculated from A450): 15.7%
- Inhibition ([3]; 3 nM, duplicate wells, calculated from A450, 0.003 µM): 18.5965
- inhibition at 0.03 µM ([3]; 30 nM, duplicate wells, calculated from A450): 17.9%
- Inhibition ([3]; 30 nM, duplicate wells, calculated from A450, 0.03 µM): 21.4035
- inhibition at 0.3 µM ([3]; 300 nM, duplicate wells, calculated from A450): 28.8%
- Inhibition ([3]; 300 nM, duplicate wells, calculated from A450, 0.3 µM): 23.1579
- inhibition at 3 µM ([3]; 3000 nM, duplicate wells, calculated from A450): 43%
- Inhibition ([3]; 3000 nM, duplicate wells, calculated from A450, 3 µM): 40.5263
- inhibition at 30 µM ([3]; 30000 nM, duplicate wells, calculated from A450): 91%
- Inhibition ([3]; 30000 nM, duplicate wells, calculated from A450, 30 µM): 89.8246
- IC50 [3]: 1.99 µM
- IC50 ([4]; Homo sapiens): > 100 µM
- melting point: 131 to 134 °C
- IC50 ([5]; Homo sapiens): 7.19 ± 0.68 µM
Compound: COCCOc1cc2ncnc(Nc3cccc(-c4cn(-c5ccccc5Cl)nn4)c3)c2cc1OCCOC [e8, [6,7-Bis-(2-methoxy-ethoxy)-quinazolin-4-yl]-{3-[1-(2-chloro-phenyl)-1H-[1,2,3]triazol-4-yl]-phenyl}-amine]
- Inhibitory efficacy ([1]; H460, 1uM, single repeats (Repeat 1-3), given as fraction, 1 µM): 0.1177 and 0.197
- Inhibitory efficacy ([1]; H460, 2uM, single repeats (Repeat 1-3), given as fraction, 2 µM): 0.3433 and 0.3114
- Inhibitory efficacy ([1]; H460, 4uM, single repeats (Repeat 1-3), given as fraction, 4 µM): 0.6025 and 0.5869
- Inhibitory efficacy ([1]; H460, 8uM, single repeats (Repeat 1-3), given as fraction, 8 µM): 0.6548 and 0.6973
- Inhibitory efficacy ([1]; H460, 16uM, single repeats (Repeat 1-3), given as fraction, 16 µM): 0.6875 and 0.7414
- inhibition at 1 µM ([1]; Homo sapiens, NCI-H460, read-out: Inhibitory efficacy, H460, 1uM, single repeats (Repeat 1-3), given as fraction): 14.2%
- inhibition at 2 µM ([1]; Homo sapiens, NCI-H460, read-out: Inhibitory efficacy, H460, 2uM, single repeats (Repeat 1-3), given as fraction): 35.8%
- inhibition at 4 µM ([1]; Homo sapiens, NCI-H460, read-out: Inhibitory efficacy, H460, 4uM, single repeats (Repeat 1-3), given as fraction): 48.3%
- inhibition at 8 µM ([1]; Homo sapiens, NCI-H460, read-out: Inhibitory efficacy, H460, 8uM, single repeats (Repeat 1-3), given as fraction): 66.5%
- inhibition at 16 µM ([1]; Homo sapiens, NCI-H460, read-out: Inhibitory efficacy, H460, 16uM, single repeats (Repeat 1-3), given as fraction): 66.8%
- Inhibitory efficacy [2, 7]: 0.2217 and 0.2238
- Inhibitory efficacy [2, 8]: 0.3678 and 0.3836
- inhibition at 8 µM [2, 9]: 18.4%
- inhibition at 16 µM [2, 10]: 42.9%
- inhibition at 4 µM ([4]; Homo sapiens): 17.4%
- inhibition at 8 µM ([4]; Homo sapiens): 26.3%
- inhibition at 16 µM ([4]; Homo sapiens): 13.4%
- Inhibitory efficacy ([4]; PC-9, 4uM, 4 µM): 0.2895 and 0.3075
- Inhibitory efficacy ([4]; PC-9, 8uM, 8 µM): 0.1686 and 0.3213
- Inhibitory efficacy ([4]; PC-9, 16uM, 16 µM): 0.1771 and 0.2089
- Inhibitory efficacy ([5]; 1uM, given as fraction, Repeat 1-3): 0.1767 and 0.1612
- Inhibitory efficacy ([5]; 2uM, given as fraction, Repeat 1-3): 0.1999 and 0.1391
- Inhibitory efficacy [5, 6]: 0.3925 and 0.388
- Inhibitory efficacy [5, 7]: 0.5795 and 0.574
- Inhibitory efficacy [5, 8]: 0.6879 and 0.6171
- inhibition at 1 µM ([5]; Homo sapiens, NCI-H1975, read-out: Inhibitory efficacy, H1975 cells, 1uM, given as fraction, Repeat 1-3): 16.1%
- inhibition at 2 µM ([5]; Homo sapiens, NCI-H1975, read-out: Inhibitory efficacy, H1975 cells, 2uM, given as fraction, Repeat 1-3): 19.8%
- inhibition at 4 µM ([5]; Homo sapiens, NCI-H1975, read-out: Inhibitory efficacy, H1975 cells, 4uM, given as fraction, Repeat 1-3): 39.9%
- inhibition at 8 µM [5, 11]: 51.1%
- inhibition at 16 µM [5, 12]: 64.1%
